Measured values as given in patent US10227388B2, “Peptides and combination of peptides for use in immunotherapy against non-small cell lung cancer and other cancers” (immatics biotechnologies GmbH, priority 2015, dated 2019).

Key:
[1] = target: HLA-A*02:01 (Homo sapiens, UniProt P04439, D140Y/D185E/D98H/E176V/E277Q/G131W/G231S/I119V/I121R/I166T/I218V/L300P/L318F/N151K/N90K/P208A/P217A/Q86G/Q94H/R138H/R169H/T345S); experiment: MHC binding assay (UV-ligand exchange, ELISA, peptide exchange yield); settings: binding of HLA-class I restricted peptides to HLA-A*02:01
Procedure, shortened: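 Peptide–HLA-A*02:01 complexes made by UV-ligand exchange of a UV-cleavable peptide for the test peptide. Exchange yield measured by ELISA: 100-fold diluted monomers captured on streptavidin, 1 h at 37° C., detected with HRP anti-β2m and TMB, absorbance at 450 nm.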

[2] = system: CD8+ T cells; experiment: In vitro immunogenicity: T-cell priming with artificial antigen presenting cells loaded with peptide/MHC complexes and anti-CD28 antibody, multimer readout; type: cell-based, human; settings: for Wells positive [%]: HLA-A*02 restricted peptides, positive wells among evaluable
Procedure: In an aspect, the peptides are pre-screened for immunogenicity before being included in the warehouse. By way of example, and not limitation, the immunogenicity of the peptides included in the warehouse is determined by a method comprising in vitro T-cell priming through repeated stimulations of CD8+ T cells from healthy donors with artificial antigen presenting cells loaded with peptide/MHC complexes and anti-CD28 antibody.
In order to obtain information regarding the immunogenicity of the TUMAPs of the present invention, the inventors performed investigations using an in vitro T-cell priming assay based on repeated stimulations of CD8+ T cells with artificial antigen presenting cells (aAPCs) loaded with peptide/MHC complexes and anti-CD28 antibody.
In order to perform in vitro stimulations by artificial antigen presenting cells loaded with peptide-MHC complex (pMHC) and anti-CD28 antibody, the inventors first isolated CD8+ T cells from fresh HLA-A*02 leukapheresis products via positive selection using CD8 microbeads (Miltenyi Biotec, Bergisch-Gladbach, Germany) of healthy donors obtained from the University clinics Mannheim, Germany, after informed consent.
PBMCs and isolated CD8+ lymphocytes were incubated in T-cell medium (TCM) until use consisting of RPMI-Glutamax (Invitrogen, Karlsruhe, Germany) supplemented with 10% heat inactivated human AB serum (PAN-Biotech, Aidenbach, Germany), 100 U/ml Penicillin/100 μg/ml Streptomycin (Cambrex, Cologne, Germany), 1 mM sodium pyruvate (CC Pro, Oberdorla, Germany), 20 μg/ml Gentamycin (Cambrex). 2.5 ng/ml IL-7 (PromoCell, Heidelberg, Germany) and 10 U/ml IL-2 (Novartis Pharma, Nürnberg, Germany) were also added to the TCM at this step.
Generation of pMHC/anti-CD28 coated beads, T-cell stimulations and readout was performed in a highly defined in vitro system using four different pMHC molecules per stimulation condition and 8 different pMHC molecules per readout condition.
The purified co-stimulatory mouse IgG2a anti human CD28 Ab 9.3 (Jung et al., 1987) was chemically biotinylated using Sulfo-N-hydroxysuccinimidobiotin as recommended by the manufacturer (Perbio, Bonn, Germany). Beads used were 5.6 μm diameter streptavidin coated polystyrene particles (Bangs Laboratories, Illinois, USA).
pMHC used for positive and negative control stimulations were A*0201/MLA-001 (peptide […] (SEQ ID NO. 664) from modified Melan-A/MART-1) and A*0201/DDX5-001 ([…] from DDX5, SEQ ID NO. 665), respectively.
800.000 beads/200 μl were coated in 96-well plates in the presence of 4×12.5 ng different biotin-pMHC, washed and 600 ng biotin anti-CD28 were added subsequently in a volume of 200 μl. Stimulations were initiated in 96-well plates by co-incubating 1×10^6 CD8+ T cells with 2×10^5 washed coated beads in 200 μl TCM supplemented with 5 ng/ml IL-12 (PromoCell) for 3 days at 37° C. Half of the medium was then exchanged by fresh TCM supplemented with 80 U/ml IL-2 and incubating was continued for 4 days at 37° C. This stimulation cycle was performed for a total of three times. For the pMHC multimer readout using 8 different pMHC molecules per condition, a two-dimensional combinatorial coding approach was used as previously described (Andersen et al., 2012) with minor modifications encompassing coupling to 5 different fluorochromes. Finally, multimeric analyses were performed by staining the cells with Live/dead near IR dye (Invitrogen, Karlsruhe, Germany), CD8-FITC antibody clone SK1 (BD, Heidelberg, Germany) and fluorescent pMHC multimers. For analysis, a BD LSRII SORP cytometer equipped with appropriate lasers and filters was used. Peptide specific cells were calculated as percentage of total CD8+ cells. Evaluation of multimeric analysis was done using the FlowJo software (Tree Star, Oreg., USA). In vitro priming of specific multimer+CD8+ lymphocytes was detected by comparing to negative control stimulations. […]

Substance	Peptide exchange (MHC class I binding score, peptide exchange yield) [1]	Wells positive [%] [2]	in vitro immunogenicity, donors ([2]; percentage of positive donors)	in vitro immunogenicity, wells ([2]; percentage of positive wells)
48 (ALAELYEDEV; listed as Homo sapiens) [compound 48]	″+++″ (≥50% = +++)	″+″ (<20% = +)	–	–
141 (YLDFSNNRL; listed as Homo sapiens) [compound 141]	″++″ (≥20% = ++)	″+″ (<20% = +)	–	–
283 (ALYIGDGYVIHLA; listed as Homo sapiens) [compound 283]	″+++″ (≥50% = +++)	–	+++ (50%-69% = +++)	+ (<20% = +)
38 (FLLEDDIHVS; listed as Homo sapiens) [compound 38]	″+++″ (≥50% = +++)	″+″ (<20% = +)	–	–
247 (VLLPNDLLEKV; listed as Homo sapiens) [compound 247]	″+++″ (≥50% = +++)	″+″ (<20% = +)	–	–
489 (KMWEELPEVV; listed as Homo sapiens) [compound 489]	″+++″ (≥50% = +++)	″+″ (<20% = +)	–	–
460 (AMLEKNYKL; listed as Homo sapiens) [compound 460]	″++++″ (≥75% = ++++)	″+″ (<20% = +)	–	–
3 (SLASKLTTL; listed as Homo sapiens) [compound 3]	″++++″ (≥75% = ++++)	″+″ (<20% = +)	–	–
150 (RLWEEGEELEL; listed as Homo sapiens) [compound 150]	″+++″ (≥50% = +++)	″+″ (<20% = +)	–	–
603 (FLIEPEHVNTV; listed as Homo sapiens) [compound 603]	″++″ (≥20% = ++)	″+″ (<20% = +)	–	–
36 (YVLEDLEVTV; listed as Homo sapiens) [compound 36]	″++″ (≥20% = ++)	″+″ (<20% = +)	–	–
384 (ILFANPNIFV; listed as Homo sapiens) [compound 384]	″+++″ (≥50% = +++)	″+″ (<20% = +)	–	–
199 (ALQDVPLSSV; listed as Homo sapiens) [compound 199]	″+++″ (≥50% = +++)	″+″ (<20% = +)	–	–
118 (KLIDNNINV; listed as Homo sapiens) [compound 118]	″+++″ (≥50% = +++)	″+″ (<20% = +)	–	–
11 (KIFEMLEGV; listed as Homo sapiens) [compound 11]	″+++″ (≥50% = +++)	″+″ (<20% = +)	–	–
319 (SLEPQIQPV; listed as Homo sapiens) [compound 319]	″++″ (≥20% = ++)	″+″ (<20% = +)	–	–
143 (LLLDITPEI; listed as Homo sapiens) [compound 143]	″++++″ (≥75% = ++++)	″+″ (<20% = +)	–	–
499 (KIFDIDEAEEGV; listed as Homo sapiens) [compound 499]	″++″ (≥20% = ++)	″+″ (<20% = +)	–	–
511 (FLDPYCSASV; listed as Homo sapiens) [compound 511]	″++″ (≥20% = ++)	″+″ (<20% = +)	–	–
113 (GLLPTPLFGV; listed as Homo sapiens) [compound 113]	″+++″ (≥50% = +++)	″+″ (<20% = +)	–	–
